Holding throughout (assay): Transcriptional activity, GAL4-PPAR LBD chimera / PLAP reporter in CV-1 cells
Type in all cases: cell-based

The target in one assay is T1, PPAR α (Homo sapiens, UniProt Q07869).
T1 construct: human PPAR 167-468 (PPARα); expressed in transfected cells; host or cells: CV-1 (ATCC CCL-70)
T1 sequence (Q07869 167-468): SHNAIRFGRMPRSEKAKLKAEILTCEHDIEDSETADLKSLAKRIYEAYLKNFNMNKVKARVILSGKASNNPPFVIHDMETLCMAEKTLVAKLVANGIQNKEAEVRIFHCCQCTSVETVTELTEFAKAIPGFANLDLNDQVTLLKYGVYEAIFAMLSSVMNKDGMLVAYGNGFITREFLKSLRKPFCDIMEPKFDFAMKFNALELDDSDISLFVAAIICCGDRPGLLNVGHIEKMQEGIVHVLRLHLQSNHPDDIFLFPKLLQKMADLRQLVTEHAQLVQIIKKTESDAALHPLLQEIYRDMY
The note with it: GAL4-PPARα LBD (167-468), PLAP activity 24 hours after addition, read-out: Transcriptional activities EC50 PPAR α. An excerpt: (§1) A GAL4-PPAR LBD chimera expression vector was constructed by ligating human PPAR 167-468 (PPARα), 138-440 (NUC-1) and 174-475 (PPARγ) amino acid regions (LBD: Ligand Binding Domain) to a yeast transcriptional factor GAL4 1-147 amino acid region. As the reporter gene, PLAP (Placental Alkaline Phosphatase) was used, and this was ligated downstream of a TK promoter containing a 5-copy GAL4 DNA binding element to construct a vector. As host cells, CV-1 (ATCC CCL-70) was used. That is, CV-1 cells were spread at a density of 5×10^5 cells on a 35-mm dish and cultured in 10% FCS/DMEM for 24 hours, and using FuGENE 6 transfection reagent, the cells were co-transfected with the GAL4-PPAR LBD expression vector and GAL4 DBD-TK-PLAP expression vector. 24 hours after this transfection, the cells were spread again on a 96-well plate at a density of 1×10^4/well and further cultured for 24 hours. After 24 hours, the medium was exchanged with DMEM containing 10% FCS, which was previously treated at 65° C. for inactivating intrinsic alkaline phosphatase, and a test compound was added at an arbitrary concentration. The transcriptional activity was determined in terms of PLAP activity secreted 24 hours after addition of the compound, to calculate EC50. The PLAP activity was determined after adding 50 μl assay buffer and 50 μl chemoluminescence substrate to 10 μl culture supernatant and incubating the mixture at room temperature for 1 hour. The transcriptional activities for PPAR, PPARβ(δ) and PPARγ are shown respectively in Table 1.

A further assay deals with T2, PPAR β (Homo sapiens, UniProt Q03181).
T2 construct: 138-440 (NUC-1); expressed in transfected cells; host or cells: CV-1 (ATCC CCL-70)
T2 sequence (Q03181 138-440): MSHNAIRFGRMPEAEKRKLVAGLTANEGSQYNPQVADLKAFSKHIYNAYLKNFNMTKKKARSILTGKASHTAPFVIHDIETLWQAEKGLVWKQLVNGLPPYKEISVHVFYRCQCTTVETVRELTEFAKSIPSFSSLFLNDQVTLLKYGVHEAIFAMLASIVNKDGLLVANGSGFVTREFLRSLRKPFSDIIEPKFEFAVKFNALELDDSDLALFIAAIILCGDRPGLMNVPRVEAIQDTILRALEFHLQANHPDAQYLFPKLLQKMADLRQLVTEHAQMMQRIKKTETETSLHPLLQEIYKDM
The note with it: GAL4-NUC-1 LBD (138-440), PLAP activity 24 hours after addition, read-out: Transcriptional activities EC50 PPAR β.
From the text: as §1

Another assay deals with T3, PPAR γ (Homo sapiens, UniProt P37231).
T3 construct: 174-475 (PPARγ); expressed in transfected cells; host or cells: CV-1 (ATCC CCL-70)
T3 sequence (P37231 174-475 isoform P37231-2): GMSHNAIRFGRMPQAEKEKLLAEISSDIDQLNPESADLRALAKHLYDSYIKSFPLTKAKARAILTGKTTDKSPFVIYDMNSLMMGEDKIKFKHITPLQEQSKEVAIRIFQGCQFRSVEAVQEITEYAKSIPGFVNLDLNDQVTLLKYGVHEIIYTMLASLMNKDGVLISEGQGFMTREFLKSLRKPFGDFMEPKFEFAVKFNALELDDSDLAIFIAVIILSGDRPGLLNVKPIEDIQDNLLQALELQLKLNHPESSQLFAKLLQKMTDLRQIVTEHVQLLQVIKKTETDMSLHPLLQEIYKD
As to conditions: GAL4-PPARγ LBD (174-475), PLAP activity 24 hours after addition, read-out: Transcriptional activities EC50 PPAR γ.
From the text: as §1

The EC50 is the concentration needed to bring the measured effect to its halfway point. `CC(C)OC(Cc1ccnc(OCCOc2ccc(Cl)cc2Cl)c1)C(=O)O` (stereo not drawn) [Example 1, 3-{2-[2-(2,4-Dichlorophenoxy)ethoxy]-4-pyridyl}-2-isopropoxypropanoic acid]: the results for the EC50 on PPAR α, at PPAR β and on PPAR γ were 5.6 nM, 1410 nM and 68.5 nM, respectively.
The like results for `CCOC(Cc1ccnc(OCCOc2ccc(C(F)(F)F)cc2)c1)C(=O)O` (stereo not drawn) [Example 19, 2-Ethoxy-3-(2-{2-[4-(trifluoromethyl)phenoxy]ethoxy}-4-pyridyl)propanoic acid] were, in that order, 4.9 nM, 339 nM and 64.1 nM.
The like results for `CCOC(Cc1ccnc(OCCOc2ccc(C(C)(C)C)cc2)c1)C(=O)O` (stereo not drawn) [Example 25, 3-(2-{2-[4-(tert-Butyl)phenoxy]ethoxy}-4-pyridyl)-2-ethoxypropanoic acid] were, in that order, 2.7 nM, 1580 nM and 76.3 nM.
